Measurements as given in patent US20230339851A1, “CXCR6 SULFONAMIDE COMPOUNDS” (CHEMOCENTRYX, INC., priority 2022, published 2023).

Target: T1, human CXCR6 (Homo sapiens, UniProt O00574)
T1 construct: expressed in transfected cells
Experiment: Radioligand Binding Assay (125I-CXCL16 displacement)
Conditions: L1.2 cells stably transfected with human CXCR6 cDNA, 0.1 nM 125I-CXCL16, 4° C., three-hour incubation; read-out: Potency (IC50)
Procedure, shortened: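 L1.2 cells stably expressing human CXCR6 incubated 3 h at 4 °C in HBSS/0.1% BSA with 0.1 nM 125I-CXCL16 and graded compound concentrations. Bound radioactivity collected by filtration and counted; IC50 from 3-parameter nonlinear regression.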

T1 sequence (O00574 whole entry): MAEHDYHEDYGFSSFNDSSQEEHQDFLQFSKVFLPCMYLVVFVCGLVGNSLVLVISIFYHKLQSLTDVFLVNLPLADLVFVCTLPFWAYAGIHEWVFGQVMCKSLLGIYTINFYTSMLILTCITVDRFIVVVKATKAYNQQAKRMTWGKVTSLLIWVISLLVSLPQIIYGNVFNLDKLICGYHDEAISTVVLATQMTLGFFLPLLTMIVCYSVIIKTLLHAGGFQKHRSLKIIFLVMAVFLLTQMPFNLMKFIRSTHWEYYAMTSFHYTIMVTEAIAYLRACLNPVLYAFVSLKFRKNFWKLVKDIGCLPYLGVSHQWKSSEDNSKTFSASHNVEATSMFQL

IC50 [nM] | SMILES
200 to 750 | Cc1ccccc1C(=O)Nc1ccc(S(=O)(=O)Nc2cccc(C(F)(F)F)c2)c(C)c1 [Example 1.293]
≤ 200 | CCOc1cc(NC(=O)C(O)C2CCCOC2)ccc1S(=O)(=O)Nc1cccc(OC(F)(F)F)c1 (stereo not shown) [Example 1.094]
200 to 750 | CCOc1cc(NC(=O)c2ccnc(OC)c2)ccc1S(=O)(=O)Nc1cccc(OC(F)(F)F)c1 [Example 1.076]
200 to 750 | COc1cc(NC(=O)C2CC3CCC2O3)ccc1S(=O)(=O)Nc1cccc(OC(F)(F)F)c1 (stereo not shown) [Example 1.360]
≤ 200 | O=C(Nc1ccc(S(=O)(=O)Nc2cccc(OC(F)(F)F)c2)c(OC(F)(F)F)c1)[C@@H](CO)c1ccccc1 [Example 1.361]
2000 to 20000 | COc1cc(NC(=O)[C@@H]2CCC[C@@H](OC)C2)ccc1S(=O)(=O)Nc1cccc(C(F)(F)F)c1 [Example 1.554]
≤ 200 | CC(C)[C@H](CO)C(=O)Nc1ccc(S(=O)(=O)Nc2cccc(OC(F)(F)F)c2)c(C#N)c1 [Example 1.482]
≤ 200 | CCOc1cc(NC(=O)C(O)c2ccc(Cl)cc2)ccc1S(=O)(=O)Nc1cccc(OC(F)(F)F)c1 (stereo not shown) [Example 1.338]
200 to 750 | COc1cc(NC(=O)CC2CCCC2)ccc1S(=O)(=O)Nc1cccc(C(F)(F)F)c1 [Example 1.069]
200 to 750 | Cc1cc(NC(=O)c2ccccc2)ccc1S(=O)(=O)Nc1cccc(C(F)(F)F)c1 [Example 1.447]
≤ 200 | CCOc1cc(NC(=O)c2ccn(C)c(=O)c2C)ccc1S(=O)(=O)Nc1cccc(OC(F)(F)F)c1 [Example 1.332]
750 to 2000 | Cc1ccc(C(=O)Nc2ccc(S(=O)(=O)Nc3cccc(C(F)(F)F)c3)c(C)c2)cc1 [Example 1.251]
750 to 2000 | Cc1cc(NC(=O)C2CCCOC2)ccc1S(=O)(=O)Nc1cccc(C(F)(F)F)c1 (stereo not shown) [Example 1.478]
750 to 2000 | CCOc1cc(NC(=O)CCOC)ccc1S(=O)(=O)Nc1cccc(OC(F)(F)F)c1 [Example 1.186]
200 to 750 | COc1cc(NC(=O)C2CC3C=CC2C3)ccc1S(=O)(=O)Nc1cccc(C(F)(F)F)c1 (stereo not shown) [Example 1.379]
2000 to 20000 | COc1cc(S(=O)(=O)Nc2cccc(C(F)(F)F)c2)c(C)cc1NC(C)=O [Example 1.354]
≤ 200 | CC(=O)N[C@H](C(=O)Nc1ccc(S(=O)(=O)Nc2cccc(OC(F)(F)F)c2)c(C)c1)c1ccccc1 [Example 1.481]
2000 to 20000 | Cc1cc(NC(=O)C2CCN(C)CC2)ccc1S(=O)(=O)Nc1cccc(C(F)(F)F)c1 [Example 1.522]
750 to 2000 | CCOc1cc(NC(=O)C2CC=CC2)ccc1S(=O)(=O)Nc1cccc(OC(F)(F)F)c1 [Example 1.319]
200 to 750 | COc1cc(NC(=O)c2ccnn2C)ccc1S(=O)(=O)Nc1cc(Cl)cc(OC(F)(F)F)c1 [Example 1.336]
200 to 750 | COc1cc(NC(=O)c2ccccc2)ccc1S(=O)(=O)Nc1cccc(C(F)(F)F)c1 [Example 1.040]
2000 to 20000 | COc1cc(NC(=O)[C@H]2CC[C@@H](OC)CC2)ccc1S(=O)(=O)Nc1cccc(C(F)(F)F)c1 [Example 1.371]
2000 to 20000 | Cc1cc(NC(=O)c2cncn2C)ccc1S(=O)(=O)Nc1cccc(C(F)(F)F)c1 [Example 1.048]
200 to 750 | CCOc1cc(NC(=O)CC(O)c2nccs2)ccc1S(=O)(=O)Nc1cccc(OC(F)(F)F)c1 (stereo not shown) [Example 1.485]

IC50 [nM] | SMILES
750 to 2000 | CCOc1cc(NC(=O)CC(O)c2cccnc2)ccc1S(=O)(=O)Nc1cccc(OC(F)(F)F)c1 (stereo not shown) [Example 1.236]
≤ 200 | C=C(C)CC(CCO)C(=O)Nc1ccc(S(=O)(=O)Nc2cccc(OC(F)(F)F)c2)c(OCC)c1 (stereo not shown) [Example 1.180]
750 to 2000 | CCc1cc(NC(C)=O)ccc1S(=O)(=O)Nc1cccc(C(F)(F)F)c1 [Example 1.382]
200 to 750 | COc1cc(NC(=O)[C@@H]2CCOC[C@H]2C)ccc1S(=O)(=O)Nc1cccc(OC(F)(F)F)c1 (racemic) [Example 1.007]
200 to 750 | COc1cc(NC(=O)C2CC3C=CC2O3)ccc1S(=O)(=O)Nc1cccc(C(F)(F)F)c1 (stereo not shown) [Example 1.565]
2000 to 20000 | Cc1cc(NC(=O)C2CCCO2)ccc1S(=O)(=O)Nc1cccc(C(F)(F)F)c1 (stereo not shown) [Example 1.271]
≤ 200 | CCOc1cc(NC(=O)[C@H]2CCOC[C@@H]2C)ccc1S(=O)(=O)Nc1cccc(OC(F)(F)F)c1 (racemic) [Example 1.477]
≤ 200 | CCN[C@H](C(=O)Nc1ccc(S(=O)(=O)Nc2ccc(C)c(OC(F)(F)F)c2)c(OCC)c1)C(C)C [Example 1.296]
200 to 750 | CCOc1cc(NC(=O)[C@@H](CO)c2ccccc2)ccc1S(=O)(=O)Nc1ccc(Cl)c(C(F)(F)F)c1 [Example 1.178]
750 to 2000 | CCOc1cc(NC(=O)C2(c3ccccc3)CC2)ccc1S(=O)(=O)Nc1cccc(OC(F)(F)F)c1 [Example 1.394]
750 to 2000 | CCOc1cc(NC(=O)CC(C)(C)O)ccc1S(=O)(=O)Nc1cccc(OC(F)(F)F)c1 [Example 1.166]
≤ 200 | CCOc1cc(NC(=O)C(CCO)CC(C)C)ccc1S(=O)(=O)Nc1cccc(OC(F)(F)F)c1 (stereo not shown) [Example 1.383]
2000 to 20000 | Cc1cc(NC(=O)c2ccn(C)n2)ccc1S(=O)(=O)Nc1cccc(C(F)(F)F)c1 [Example 1.001]
≤ 200 | CCOc1cc(NC(=O)[C@@H](O)C(C)C)ccc1S(=O)(=O)Nc1ccc(C)c(Cl)c1 [Example 1.368]
≤ 200 | CCOc1cc(NC(=O)C(CC)C(=O)O)ccc1S(=O)(=O)Nc1cccc(OC(F)(F)F)c1 (stereo not shown) [Example 1.571]
≤ 200 | Cc1cc(NC(=O)[C@@H](O)C(C)C)ccc1S(=O)(=O)Nc1cccc(OC(F)(F)F)c1 [Example 1.322]
750 to 2000 | CCOc1cc(NC(=O)[C@H]2CC[C@@H](OC)CC2)ccc1S(=O)(=O)Nc1cccc(OC(F)(F)F)c1 [Example 1.412]
≤ 200 | CCOc1cc(NC(=O)[C@H]2CCCC[C@H]2O)ccc1S(=O)(=O)Nc1cccc(OC(F)(F)F)c1 [Example 1.432]
750 to 2000 | CCOc1cc(NC(=O)C2CC=CC[C@H]2N)ccc1S(=O)(=O)Nc1cccc(OC(F)(F)F)c1 (mixture of isomers) [Example 1.026]
200 to 750 | CCOc1cc(NC(=O)C2CCO[C@@H]2C)ccc1S(=O)(=O)Nc1cccc(OC(F)(F)F)c1 (mixture of isomers) [Example 1.137]
200 to 750 | CCOc1cc(NS(=O)(=O)c2ccc(NC(=O)[C@@H](O)C(C)C)cc2OCC)ccc1Cl [Example 1.210]
≤ 200 | CCOc1cc(NC(=O)c2ccc(N)nc2)ccc1S(=O)(=O)Nc1cccc(OC(F)(F)F)c1 [Example 1.326]
2000 to 20000 | CCOc1cc(NC(=O)C2CCC(=O)N(CC)C2)ccc1S(=O)(=O)Nc1cccc(OC(F)(F)F)c1 (stereo not shown) [Example 1.120]
≤ 200 | CCOc1cc(NC(=O)C2c3ccccc3CC2O)ccc1S(=O)(=O)Nc1cccc(OC(F)(F)F)c1 (stereo not shown) [Example 1.257]

IC50 [nM] | SMILES
≤ 200 | C=Cc1ccc(NS(=O)(=O)c2ccc(NC(=O)[C@@H](CO)C3CC3)cc2OCC)cc1C [Example 1.146]
≤ 200 | CCOC(=O)C(C(=O)Nc1ccc(S(=O)(=O)Nc2cccc(OC(F)(F)F)c2)c(OCC)c1)C1CCCC1 (stereo not shown) [Example 1.144]
200 to 750 | COc1cc(NC(=O)[C@H]2CCCC[C@H]2O)ccc1S(=O)(=O)Nc1cccc(OC(F)(F)F)c1 [Example 1.111]
≤ 200 | CCOc1cc(NC(=O)C(O)C2CCCC2)ccc1S(=O)(=O)Nc1cccc(OC(F)(F)F)c1 (stereo not shown) [Example 1.177]
2000 to 20000 | Cc1cc(NC(=O)C2CCN(C(=O)OC(C)(C)C)CC2)ccc1S(=O)(=O)Nc1cccc(C(F)(F)F)c1 [Example 1.365]
200 to 750 | CCOC(=O)[C@H]1CC(C)=C(C)C[C@@H]1C(=O)Nc1ccc(S(=O)(=O)Nc2cccc(OC(F)(F)F)c2)c(OCC)c1 [Example 1.291]
≤ 200 | COc1cc(NC(=O)C(O)C(C)C)ccc1S(=O)(=O)Nc1cccc(C(F)(F)F)c1 (stereo not shown) [Example 1.535]
≤ 200 | CCOc1cc(NC(=O)c2cncnc2)ccc1S(=O)(=O)Nc1cccc(OC(F)(F)F)c1 [Example 1.171]
≤ 200 | COc1cc(NC(=O)c2ccnn2C)ccc1S(=O)(=O)Nc1ccc(Br)c(OC(F)(F)F)c1 [Example 1.397]
≤ 200 | CCOc1cc(NC(=O)[C@@H](O)C(C)C)ccc1S(=O)(=O)Nc1ccc(F)c(C2CC2)c1 [Example 1.211]
≤ 200 | CCOc1cc(NC(=O)c2ccnn2C)ccc1S(=O)(=O)Nc1cccc(OC(F)(F)F)c1 [Example 1.157]
2000 to 20000 | CCOc1cc(NC(=O)[C@H]2CC[C@@](C)(O)CC2)ccc1S(=O)(=O)Nc1cccc(OC(F)(F)F)c1 [Example 1.043]
≤ 200 | CCOc1cc(NC(=O)c2ccc[n+]([O-])c2)ccc1S(=O)(=O)Nc1cccc(OC(F)(F)F)c1 [Example 1.510]
≤ 200 | COc1cc(NC(=O)c2ccnn2C)ccc1S(=O)(=O)Nc1ccc(C)c(OC(F)(F)F)c1 [Example 1.151]
2000 to 20000 | COc1cc(NC(=O)CC2CC2)ccc1S(=O)(=O)Nc1cccc(C(F)(F)F)c1 [Example 1.414]
200 to 750 | COc1cc(NC(=O)[C@H]2CCOC[C@H]2C)ccc1S(=O)(=O)Nc1cccc(C(F)(F)F)c1 (racemic) [Example 1.219]
≤ 200 | CCOc1cc(NC(=O)[C@H]2CCOC[C@H]2C)ccc1S(=O)(=O)Nc1cccc(OC(F)(F)F)c1 (racemic) [Example 1.514]
≤ 200 | CCOc1cc(NC(=O)C(CO)C(C)C)ccc1S(=O)(=O)Nc1cccc(OC(F)(F)F)c1 (stereo not shown) [Example 1.563]
≤ 200 | O=C(Nc1ccc(S(=O)(=O)Nc2cccc(OC(F)(F)F)c2)c(Cl)c1)[C@@H](CO)c1ccccc1 [Example 1.196]
≤ 200 | COc1cc(NC(=O)[C@@H](CO)C(C)C)ccc1S(=O)(=O)Nc1cccc(C(F)(F)F)c1 [Example 1.460]
200 to 750 | CCOc1cc(NC(=O)[C@@H](CO)c2ccccc2)ccc1S(=O)(=O)Nc1ccc(Cl)c(Cl)c1 [Example 1.175]
2000 to 20000 | COc1ccccc1C(=O)Nc1ccc(S(=O)(=O)Nc2cccc(C(F)(F)F)c2)c(OC)c1 [Example 1.294]
